Consider one molecule from patent publication US20180161314A1, “Methods for Treating Hyperuricemia and Related Diseases” (Ardea Biosciences, Inc., priority 2010, published 2018).

Like-named read-outs stand apart in the source and are kept apart here.

Data set [1] deals with hyperuricemic subjects with symptomatic gout. Kind of data set: Pilot study of drug 1 versus placebo and open-label allopurinol in hyperuricemic subjects with symptomatic gout (Examples 1, 2, 20). The format is in vivo, human. As for the experimental part: Study Objectives • To compare the proportion of subjects whose sUA level is <6.0 mg/dL following 2 weeks of continuous treatment with drug 1 compared to allopurinol and placebo. • To evaluate the percent reduction from baseline in sUA levels following 2 weeks of continuous treatment with drug 1 in combination with allopurinol. • To evaluate the proportion of subjects whose sUA levels are <6.0 mg/dL, <5.0 mg/dL and <4.0 mg/dL at each visit. • To evaluate the absolute and percent reduction from baseline in sUA levels at each visit. • To evaluate the maximum percent reduction in sUA levels from baseline during the entire treatment period. • To evaluate percent change in 24-hour urine uric acid level from baseline to Day 15. • To evaluate the safety and tolerability of drug 1 in subjects with gout. • To evaluate the pharmacokinetics, safety and tolerability of drug 1 in combination with allopurinol in subjects with gout.
A randomized, double-blind, placebo-controlled, dose titration, safety and pharmacodynamics pilot study, in approximately 26 hyperuricemic subjects with symptomatic gout enrolled at 2-3 investigational sites in N America, of: • drug 1 versus placebo and open-label allopurinol (Cohort 1); and • drug 1 in combination with allopurinol versus continued allopurinol alone (Cohort 2)
Subjects are randomized 7 days prior to Day 1 in a double-blind fashion to receive drug 1, drug 1 matching placebo, or open-label allopurinol (Cohort 1) or drug 1 or drug 1 matching placebo in combination with allopurinol (Cohort 2).
To reduce the incidence of gout flares, colchicine 0.6 mg qd is administered to all subjects starting 14 days prior to the Baseline (Day 1) visit. Subjects continue colchicine administration throughout the Treatment Period, discontinuing at the End of Study visit (one week after the last dose of study medication).
Cohort 1 approx 20 subjects randomized in 2:1:1 ratio treatment groups—drug 1:placebo:allopurinol.
Subjects randomized to double-blind treatment: • approx 10 subjects randomized to receive drug 1 200 mg qd (4 drug 1 50 mg capsules/day) for one week, followed by drug 1 400 mg qd (8 drug 1 50 mg capsules/day) for one week. • 5 subjects randomized to receive drug 1 matching placebo qd for 2 weeks (week 1-4 drug 1 matching placebo capsules; week 2-8 drug 1 matching placebo capsules)
Subjects randomized to open-label treatment: • 5 subjects randomized to receive allopurinol 300 mg tablets qd for 2 weeks Cohort 2 approx 6 subjects randomized in 5:1 ratio treatment groups—drug+allopurinol:placebo+allopurinol
For Cohorts 1 and 2, subjects randomized to double-blind treatment take drug 1 or drug 1 matching placebo every 24 hours (±1 h) (morning dose) for a period of 2 weeks. For Cohort 1, subjects randomized to open-label treatment take allopurinol every 24 hours (±1 h) (morning dose) for a period of 2 weeks.
Subjects are requested to then drink approximately 240 mL of water 1-2 hours after dosing.
1. Male or post-menopausal or surgically sterile female. 2. 18-75 years of age. 3. Hyperuricemic, defined as: Cohort 1: Screening serum uric acid is ≥8 mg/dL Cohort 2: Screening serum uric acid is ≥10 mg/dL 4. Subject meets one or more of the 1977 American Rheumatism Association (ARA) criteria for the diagnosis of acute arthritis of primary gout. 5. Subject is willing and able to give informed consent and adhere to visit/protocol schedules.
Blood samples (4.5 mL) are collected and sUA levels determined at Screening (repeated as necessary prior to Day 1), Baseline (Day 1) (1 hour and 8 hours post-dose), Day 8 (trough, 1 hour and 8 hours post-dose), Day 9 (24 hours after Day 8 dose), and Day 14 (trough and 8 hours post-dose), Day 15 and End of Study. An additional sUA level is obtained on Day 7 for Cohort 2 subjects prior to the first dose of allopurinol.
Primary pharmacodynamics parameter is the proportion of subjects with serum uric acid <6.0 mg/dL following 2 weeks of treatment. […]

The subject of data set [2] is gout patients with hyperuricemia. In kind it is in vivo. The conditions noted are these: for Mean absolute sUA reduction / Mean sUA % change / Mean sUA level: ± SE; for % Response rate for sUA falling below 4 mg/dL / % Response rate for sUA falling below 5 mg/dL / % Response rate for sUA falling below 6 mg/dL: allopurinol 300 mg. As for the experimental part: Study Objectives • To measure the effect of drug 1, alone and in combination with allopurinol, on serum urate concentration. • To evaluate the safety and tolerability of drug 1 in combination with allopurinol.
The study is open-label in gout patients with hyperuricemia, involving 2 panels of ˜10-12 patients per panel. The panels may be enrolled simultaneously.
Panel 1 receives a once-daily dose of allopurinol 300 mg alone for 7 days and for an additional 7 days in combination with a once-daily dose of drug 1 400 mg. Patients then receive 7 days of a once-daily dose of drug 1 400 mg alone. Panel 2 follows the same regimen as panel 1, at doses of allopurinol 300 mg and drug 1 600 mg.
• Day −10 to Day 28: colchicine prophylaxis; or • Day −7 to Day 28: colchicine prophylaxis (for patients not washing out from ULT) • Days 1-7: allopurinol 300 mg qd • Days 8-14: drug 1 400 mg qd+allopurinol 300 mg qd • Days 15-21: drug 1 400 mg qd
• Day −10 to Day 28: colchicine prophylaxis; or • Day −7 to Day 28: colchicine prophylaxis (for patients not washing out from ULT) • Days 1-7: allopurinol 300 mg qd • Days 8-14: drug 1 600 mg qd+allopurinol 300 mg qd • Days 15-21: drug 1 600 mg qd
Gout patients on a urate lowering therapy (ULT), have previously taken a ULT or who have never taken a ULT are eligible to participate. Screening procedures to determine patient eligibility are performed within approximately 14 days of the first dose of study drug (Day 1). Subjects currently on ULT wash-out for at least 10 days before Day 1, and begin colchicine (Colcry® 0.6 mg qd, URL Pharma) as prophylaxis for gout flares at the beginning of the wash-out period. Subjects not on ULT begin colchicine administration at least 7 days prior to Day 1. Patients intolerant of colchicine during the screening period are considered screen failures and not enrolled. Prophylactic administration of colchicine continues for 7 days after the last dose of study medication.
Eligible patients report to the study center early morning on Days −1, 7, 14, and 21 (or the afternoon/evening the day before). Serial blood samples are collected on Days −1, 7, 14, and 21. Study medication is administered to each patient and taken orally every morning with approximately 240 mL of water, at approximately the same time of the morning every day, and approximately 30 minutes after finishing a full breakfast (approximately 650 Kcal and 35% fat); the breakfast is standardized on Days −1 to 21.
Inclusion Criteria • Patient is male or post-menopausal or surgically sterile female. • Patient is 18-80 years of age. • Patient meets one or more criteria for the diagnosis of gout as per the American Rheumatism Association (ARA) Criteria for the Classification of Acute Arthritis of Primary Gout (Appendix B). • Patient sUA≥8 mg/dL at screening. • Patient willing and able to give informed consent and adhere to visit/protocol schedules • No clinically relevant abnormalities in blood pressure (BP), heart rate (HR), body temperature and respiratory rate as per Investigator's judgment.
Subject urate serum levels are recorded, and any safety concerns assessed (by adverse events, clinical laboratory test results, vital signs, 12-lead ECGs, and physical examinations). […] Urate serum concentrations are evaluated for treatment- and/or time-dependent changes relative to baseline (Day −1), and may be expressed both in standard units (mg/dL) and as changes from baseline (e.g., percent change, absolute change, maximal change, and time or day of maximal change).
Drug 1 was tested according to the protocol described in Example 21.
Serum urate levels were measured and absolute and % reduction levels from baseline calculated, for Allopurinol monotherapy, Drug 1 monotherapy and Allopurinol plus Drug 1 combination.

[3] abbreviates: Drug 1 400 mg panel: allopurinol 300 mg qd days 1-7, combination days 8-14, drug 1 400 mg qd alone days 15-21.
The mark [4] stands for this setting: Drug 1 600 mg panel: allopurinol 300 mg qd days 1-7, combination days 8-14, drug 1 600 mg qd alone days 15-21.

With `Oc1ncnc2[nH]ncc12` [Allopurinol, 1H-pyrazolo[3,4-d]pyrimidin-4(2H)-one, reference compound], the “Responders Day 14 (those with sUA <6 mg/dL)” value in data set [1] (Cohort 1, Day 14, responders/subjects, drug 1 200 mg qd 1 week then 400 mg qd 1 week, allopurinol 300 mg qd 2 weeks) is 5/5. The Adverse event result in data set [1] (one subject on allopurinol 300 mg qd) is given as “hyperaldosteronemia”. In data set [2] (setting [3]), the “Mean absolute sUA reduction” value is -3.1 ± 0.28 mg/dL, the “Mean sUA % change” value is on record as −32.2 ± 2.1% and the “Mean sUA level” value is listed as 6.5 ± 0.16 mg/dL. Also, in data set [2] (Drug 1 400 mg panel), the “% Response rate for sUA falling below 4 mg/dL” value was determined as 0%, the “% Response rate for sUA falling below 5 mg/dL” value stood at 0% and the “% Response rate for sUA falling below 6 mg/dL” value is 10%. Moreover, in data set [2] (setting [4]), the “Mean absolute sUA reduction” value is -2.6 ± 0.26 mg/dL, the “Mean sUA % change” value is listed as −28.7 ± 2.4% and the “Mean sUA level” value amounted to 6.3 ± 0.31 mg/dL. In data set [2] (Drug 1 600 mg panel), the “% Response rate for sUA falling below 4 mg/dL” value came to 0%, the “% Response rate for sUA falling below 5 mg/dL” value was 10% and the “% Response rate for sUA falling below 6 mg/dL” value is 30%.
